Laboratory results taken from ChEMBL document CHEMBL4266060, “Structure-Property Relationship Studies of Influenza A Virus AM2-S31N Proton Channel Blockers” (ACS Med Chem Lett, 2018).
Active and inactive are the calls of the source. The calls are words filed in the database; no cut-off is given here.

test system: Influenza A virus; experiment: Inhibition of Influenza A virus AM2 expressed in xenopus laevis frog oocytes assessed as inhibition of channel current at 100 uM after 2 mins by two-electrode voltage clamp assay relative to control; format: cell-based; details: not given

Structure (SMILES) | inhibition [%]
COc1ccc(-c2ccc(CNC34CC5CC(CC(O)(C5)C3)C4)s2)cn1 | 0
OC12CC3CC(C1)CC(NCc1ccc(-c4ccccc4Cl)s1)(C3)C2 | 0
Brc1ccc(CNC23CC4CC(CC(C4)C2)C3)[se]1 | 56.1
CSc1ccccc1-c1ccc(CNC23CC4CC(CC(O)(C4)C2)C3)s1 | 0
OC12CC3CC(C1)CC(NCc1ccc(-c4ccc(F)cc4F)s1)(C3)C2 | 0
COc1ccc(-c2ccc(CNC34CC5CC(CC(O)(C5)C3)C4)s2)cc1OC | 0
Ic1ccc(CNC23CC4CC(CC(C4)C2)C3)s1 | 91
COc1ncc(-c2ccc(CNC34CC5CC(CC(O)(C5)C3)C4)s2)cn1 | 0
Brc1ccc(CNC23CCC4CC(CC(C4)C2)C3)s1 | 86.5
Brc1ccc(CNC23CC4CC(CC(C4)C2)C3)s1 | 77.2
OC12CC3CC(C1)CC(NCc1cnc(Br)s1)(C3)C2 | 2.7
COC(=O)c1ccc(-c2ccc(CNC34CC5CC(CC(O)(C5)C3)C4)s2)cc1 | 0
OC12CC3CC(C1)CC(NCc1nc(Br)cs1)(C3)C2 | 3.9
c1csc(-c2ccc(CNC34CC5CC(CC(C5)C3)C4)s2)c1 | 17.9
OC12CC3CC(C1)CC(NCc1csc(Br)c1)(C3)C2 | 1.9
OC12CC3CC(C1)CC(NCc1ccc(-c4ccccc4)s1)(C3)C2 | 0.3
OC12CC3CC(C1)CC(NCc1ccc(I)s1)(C3)C2 | 3.2
OC12CC3CC(C1)CC(NCc1cc(Br)cs1)(C3)C2 | 6.5
OC12CC3CC(C1)CC(NCc1ccc(Br)s1)(C3)C2 | 11.4

test system: Influenza A virus; experiment: not given; format: functional, A/California/07/2009(H1N1), MDCK; details: not given

Structure (SMILES) | Activity [%]
COc1ccc(-c2ccc(CNC34CC5CC(CC(O)(C5)C3)C4)s2)cn1 | 40.5
OC12CC3CC(C1)CC(NCc1ccc(-c4ccccc4Cl)s1)(C3)C2 | 20.4
Brc1ccc(CNC23CC4CC(CC(C4)C2)C3)[se]1 | 0
CSc1ccccc1-c1ccc(CNC23CC4CC(CC(O)(C4)C2)C3)s1 | 47.7
OC12CC3CC(C1)CC(NCc1ccc(-c4ccc(F)cc4F)s1)(C3)C2 | 44.1
COc1ccc(-c2ccc(CNC34CC5CC(CC(O)(C5)C3)C4)s2)cc1OC | 67.5
Ic1ccc(CNC23CC4CC(CC(C4)C2)C3)s1 | 1.8
COc1ncc(-c2ccc(CNC34CC5CC(CC(O)(C5)C3)C4)s2)cn1 | 74
Brc1ccc(CNC23CCC4CC(CC(C4)C2)C3)s1 | 0
Brc1ccc(CNC23CC4CC(CC(C4)C2)C3)s1 | 3.2
OC12CC3CC(C1)CC(NCc1cnc(Br)s1)(C3)C2 | 102.1
COC(=O)c1ccc(-c2ccc(CNC34CC5CC(CC(O)(C5)C3)C4)s2)cc1 | 52
OC12CC3CC(C1)CC(NCc1nc(Br)cs1)(C3)C2 | 108
c1csc(-c2ccc(CNC34CC5CC(CC(C5)C3)C4)s2)c1 | 58.5
OC12CC3CC(C1)CC(NCc1csc(Br)c1)(C3)C2 | 31.3
c1csc(-c2cc(CNC34CC5CC(CC(C5)C3)C4)no2)c1 | 0
OC12CC3CC(C1)CC(NCc1ccc(-c4ccccc4)s1)(C3)C2 | 27.9
OC12CC3CC(C1)CC(NCc1ccc(I)s1)(C3)C2 | 2.5
OC12CC3CC(C1)CC(NCc1cc(Br)cs1)(C3)C2 | 31.4
OC12CC3CC(C1)CC(NCc1ccc(Br)s1)(C3)C2 | 3.9

test system: not listed separately; experiment: Cytotoxicity against MDCK cells after 48 hrs by neutral red uptake assay; format: cell-based, Canis lupus familiaris; details: dog

Structure (SMILES) | CC50 at 48 h [µM]
CCC(CC)O[C@@H]1C=C(C(=O)O)C[C@H](N)[C@H]1NC(C)=O [OSELTAMIVIR CARBOXYLATE] | > 20
OC12CC3CC(C1)CC(NCc1ccc(-c4ccccc4Cl)s1)(C3)C2 | 65.2
Brc1ccc(CNC23CC4CC(CC(C4)C2)C3)[se]1 | 82.1
Ic1ccc(CNC23CC4CC(CC(C4)C2)C3)s1 | 70.2
Brc1ccc(CNC23CCC4CC(CC(C4)C2)C3)s1 | 43.1
Brc1ccc(CNC23CC4CC(CC(C4)C2)C3)s1 | 123
c1csc(-c2ccc(CNC34CC5CC(CC(C5)C3)C4)s2)c1 | 19.5
OC12CC3CC(C1)CC(NCc1csc(Br)c1)(C3)C2 | 364
OC12CC3CC(C1)CC(NCc1ccc(-c4ccccc4)s1)(C3)C2 | 80.5
OC12CC3CC(C1)CC(NCc1ccc(I)s1)(C3)C2 | 317
OC12CC3CC(C1)CC(NCc1cc(Br)cs1)(C3)C2 | 381
OC12CC3CC(C1)CC(NCc1ccc(Br)s1)(C3)C2 | 238

test system: not listed separately; experiment: Half life in mouse liver microsomes at 1 uM in presence of NADPH generating system by LC-MS/MS analysis; format: ADME, microsome; details: not given

Structure (SMILES) | half-life at 1 µM [min]
Brc1ccc(CNC23CC4CC(CC(C4)C2)C3)[se]1 | 32.1
Ic1ccc(CNC23CC4CC(CC(C4)C2)C3)s1 | 24.5
Brc1ccc(CNC23CCC4CC(CC(C4)C2)C3)s1 | 9.1
Brc1ccc(CNC23CC4CC(CC(C4)C2)C3)s1 | > 145
c1csc(-c2ccc(CNC34CC5CC(CC(C5)C3)C4)s2)c1 | 2.8
OC12CC3CC(C1)CC(NCc1ccc(I)s1)(C3)C2 | > 145
OC12CC3CC(C1)CC(NCc1cc(Br)cs1)(C3)C2 | 101
OC12CC3CC(C1)CC(NCc1ccc(Br)s1)(C3)C2 | > 145

test system: not listed separately; experiment: Intrinsic clearance in mouse liver microsomes at 1 uM in presence of NADPH generating system by LC-MS/MS analysis; format: ADME, microsome; details: read-out: CLH

Structure (SMILES) | CLint scaled at 1 µM [mL/min/kg]
Brc1ccc(CNC23CC4CC(CC(C4)C2)C3)[se]1 | 171
Ic1ccc(CNC23CC4CC(CC(C4)C2)C3)s1 | 224
Brc1ccc(CNC23CCC4CC(CC(C4)C2)C3)s1 | 604
Brc1ccc(CNC23CC4CC(CC(C4)C2)C3)s1 | < 38
c1csc(-c2ccc(CNC34CC5CC(CC(C5)C3)C4)s2)c1 | 1940
OC12CC3CC(C1)CC(NCc1ccc(I)s1)(C3)C2 | < 38
OC12CC3CC(C1)CC(NCc1cc(Br)cs1)(C3)C2 | 54.5
OC12CC3CC(C1)CC(NCc1ccc(Br)s1)(C3)C2 | < 38

test system: not listed separately; experiment: Half life in human liver microsomes at 1 uM in presence of NADPH generating system by LC-MS/MS analysis; format: ADME, microsome; details: not given

Structure (SMILES) | half-life at 1 µM [min]
OC12CC3CC(C1)CC(NCc1ccc(I)s1)(C3)C2 | > 145
OC12CC3CC(C1)CC(NCc1ccc(Br)s1)(C3)C2 | > 145

test system: not listed separately; experiment: Permeability of the compound by PAMPA; format: ADME; details: read-out: permeability

Structure (SMILES) | Papp [×10⁻⁶ cm/s]
OC12CC3CC(C1)CC(NCc1ccc(I)s1)(C3)C2 | 20.4
OC12CC3CC(C1)CC(NCc1ccc(Br)s1)(C3)C2 | 25.3

test system: Influenza A virus; experiment: not given; format: functional, organism-based; details: A/California/07/2009(H1N1), MDCK, 10 uM

Structure (SMILES) | Activity
OC12CC3CC(C1)CC(NCc1ccc(I)s1)(C3)C2 | Active

test system: Influenza A virus; experiment: not given; format: functional, organism-based; details: A/California/07/2009(H1N1), MDCK, 30 nM

Structure (SMILES) | Activity
CCC(CC)O[C@@H]1C=C(C(=O)O)C[C@H](N)[C@H]1NC(C)=O [OSELTAMIVIR CARBOXYLATE] | Active

test system: Influenza A virus; experiment: not given; format: functional, organism-based; details: A/California/07/2009(H1N1), MDCK, 30 nM; remark: another data set of the same source

Structure (SMILES) | Activity
CCC(CC)O[C@@H]1C=C(C(=O)O)C[C@H](N)[C@H]1NC(C)=O [OSELTAMIVIR CARBOXYLATE] | inactive

test system: Influenza A virus; experiment: not given; format: functional, A/California/07/2009(H1N1), A549; details: not given; remark: another data set of the same source

Structure (SMILES) | Activity [log10PFU/ml]
OC12CC3CC(C1)CC(NCc1ccc(I)s1)(C3)C2 | 1.8

test system: Influenza A virus; experiment: not given; format: functional, A/California/07/2009(H1N1), A549; details: not given; remark: another data set of the same source

Structure (SMILES) | Activity [log10PFU/ml]
OC12CC3CC(C1)CC(NCc1ccc(I)s1)(C3)C2 | 2.1

test system: Influenza A virus; experiment: not given; format: functional, A/California/07/2009(H1N1), A549; details: not given; remark: another data set of the same source

Structure (SMILES) | Activity [log10PFU/ml]
OC12CC3CC(C1)CC(NCc1ccc(I)s1)(C3)C2 | 2.9

test system: Influenza A virus; experiment: not given; format: functional, organism-based; details: A/California/07/2009(H1N1), A549, 30 nM

Structure (SMILES) | Activity
CCC(CC)O[C@@H]1C=C(C(=O)O)C[C@H](N)[C@H]1NC(C)=O [OSELTAMIVIR CARBOXYLATE] | inactive

test system: not listed separately; experiment: Half life in mouse liver microsomes at 0.5 uM; format: ADME, microsome; details: liver microsomes

Structure (SMILES) | half-life at 0.5 µM [min]
c1nc(N2CCCCCC2)ncc1CNC12CC3CC(CC(C3)C1)C2 | 0.8
Brc1ccc(CNC23CC4CC(CC(C4)C2)C3)s1 | > 145
OC12CC3CC(C1)CC(NCc1ccc(N4CCCCCC4)cn1)(C3)C2 | 22.1
OC12CC3CC(C1)CC(NCc1cnc(N4CCCCC4)nc1)(C3)C2 | 19.4

same assay, conditions: microsomes, 0.5 µM

Structure (SMILES) | t1/2 [min]
C[Si](C)(C)c1ccc(CNC23CC4CC(CC(O)(C4)C2)C3)cc1 | 4.4

test system: not listed separately; experiment: Intrinsic clearance in mouse liver microsomes at 0.5 uM; format: ADME, microsome; details: read-out: CLH

Structure (SMILES) | CLint scaled at 0.5 µM [mL/min/kg]
c1nc(N2CCCCCC2)ncc1CNC12CC3CC(CC(C3)C1)C2 | 6760
Brc1ccc(CNC23CC4CC(CC(C4)C2)C3)s1 | < 38
OC12CC3CC(C1)CC(NCc1ccc(N4CCCCCC4)cn1)(C3)C2 | 248
OC12CC3CC(C1)CC(NCc1cnc(N4CCCCC4)nc1)(C3)C2 | 283

test system: Influenza A virus; experiment: microbe, parasite or virus in culture; details: A/California/07/2009(H1N1), MDCK
Description: Antiviral activity against Influenza A virus (A/California/07/2009(H1N1)) infected in MDCK cells expressing ST6Gal-1 assessed as reduction in plaque formation pretreated with virus for 30 mins followed by viral infection measured after 2 to 3 days by naphthalene black dye based assay

Structure (SMILES) | EC50 [µM]
CCC(CC)O[C@@H]1C=C(C(=O)O)C[C@H](N)[C@H]1NC(C)=O [OSELTAMIVIR CARBOXYLATE] | 0.0024
OC12CC3CC(C1)CC(NCc1ccc(-c4ccccc4Cl)s1)(C3)C2 | 2.5
Brc1ccc(CNC23CC4CC(CC(C4)C2)C3)[se]1 | 2.2
Ic1ccc(CNC23CC4CC(CC(C4)C2)C3)s1 | 1
Brc1ccc(CNC23CCC4CC(CC(C4)C2)C3)s1 | 0.6
Brc1ccc(CNC23CC4CC(CC(C4)C2)C3)s1 | 2.9
c1csc(-c2ccc(CNC34CC5CC(CC(C5)C3)C4)s2)c1 | 12.2
OC12CC3CC(C1)CC(NCc1csc(Br)c1)(C3)C2 | 5.1
OC12CC3CC(C1)CC(NCc1ccc(-c4ccccc4)s1)(C3)C2 | 2.1
OC12CC3CC(C1)CC(NCc1ccc(I)s1)(C3)C2 | 0.9
OC12CC3CC(C1)CC(NCc1cc(Br)cs1)(C3)C2 | 3.1
OC12CC3CC(C1)CC(NCc1ccc(Br)s1)(C3)C2 | 1.1
